Experimental data: patent US12503707B2, “Methods, plants and compositions for overcoming nutrient suppression of mycorrhizal symbiosis” (Cambridge Enterprise Limited, priority 2020, dated 2025)

Columns and labels:
[1] = tested on: H. vulgare LysM receptor-like kinase homologs; experiment: LysM receptor-like kinase gene expression by RT-qPCR after strigolactone or karrikin treatment; assay type: in vivo, Hordeum vulgare; conditions: −N+P plates for 4 days, then 0.1 μM for 24 hours; relative to DMSO mock
From the text: FIG. 13 provides the relative expression levels of H. vulgare genes, including LysM receptor-like kinase homologs, in response to treatment with strigolactone or karrikin signaling molecules, as determined by qPCR. The H. vulgare gene is indicated on the x-axis including, from left to right, HvSTH7b (a homolog of Arabidopsis STH7, a karrikin-responsive gene (Nelson et al., 2010, PNAS)), HvRLK2, HvRLK3, HvRLK7, HvRLK9, and HvRLK10. Relative expression levels are shown on the y-axis. Values shown are the mean of three samples±SD. ** indicates P<0.01, and * indicates 0.01<P<0.05, as determined by a Student's t-test. […]
Wild type H. vulgare plants tested in FIG. 13 were grown on BNM plates for four days, and the plate roots were then treated with either 0.1 μM 5′-deoxystrigol (Chiralix), a mixture of 0.1 μM Karrikin 1 or 0.1 μM Karrikin 2 (Chiralix), or 0.1 μM GR24 (Chiralix) in liquid BNM for 24 hours. […] Real-time quantitative PCR (RT-qPCR) was performed using SensiFAST SYBR No-ROX Kit. An H. vulgare ADP gene was used as a reference gene, and fold changes were calculated for 5′-deoxystrigol-, karrikins- or GR24-treated roots with respect to DMSO-treated roots (mock treatment). […]

[2] = tested on: H. vulgare root epidermal cells; experiment: LCO-induced nuclear calcium oscillations after strigolactone, karrikin and/or CEP pre-treatment; assay type: cell-based, Hordeum vulgare; conditions: then 10^−7 M SmLCO
Experimental: (§1) FIGS. 11A-11B provide the effects of strigolactone or karrikin treatment on M. truncatula (FIG. 11A) and H. vulgare (FIG. 11B) root epidermal cell nuclear calcium oscillations. FIG. 11A provides traces of nuclear calcium oscillations produced by M. truncatula root epidermal cells. Cells were grown under high phosphate and limiting nitrate levels (3.75 mM PO4^− and 0 mM NO3^−). The top trace represents control cells that were pretreated with buffer alone; the second trace represents cells that were pretreated with 1 μM of strigolactone 5-deoxystrigol for 12 hours; and the third trace represents cells that were pretreated with a 1 μM mixture of karrikin 1 and karrikin 2 (KARs) for 12 hours. All cells were secondarily treated with 10^−8 M NS-LCO. The scale bar indicates a span of 10 minutes, and the fractions indicate the number of cells that responded over the total number of cells analyzed.
FIGS. 14A-14D provide the effects of treating H. vulgare plants with a strigolactone or with both a strigolactone and a CEP peptide. […] The scale bar indicates a span of 10 minutes, and the fractions indicate the number of cells that responded over the total number of cells analyzed. FIGS. 14B-14C provide the level of mycorrhizal colonization of H. vulgare when treated with the synthetic strigolactone analog GR24 under different nutrient conditions, as determined in two separate experiments. […]

[3] = tested on: M. truncatula root epidermal cells; experiment: LCO-induced nuclear calcium oscillations after strigolactone or karrikin pre-treatment; assay type: cell-based, Medicago truncatula; conditions: 3.75 mM PO4− and 0 mM NO3−; 1 μM pre-treatment for 12 hours, then LCO
Experimental: as §1
In FIGS. 11A-11B, M. truncatula (FIG. 11A) and H. vulgare (FIG. 11B) plants were grown on media containing high phosphate and limiting nitrate (3.75 mM PO4^− and 0 mM NO3^− for M. truncatula; 0 mM NO3^− and 0.5 mM PO4^− for H. vulgare). H. vulgare pants tested in FIG. 14A were grown on BNM media containing high nitrate and high phosphate (5 mM NO3^− and 0.5 mM PO4^−). […]

5-deoxystrigol [strigolactone]
expression of LysM receptor-like kinase genes, including RLK10 [1]: induced | symbiotic calcium oscillations under replete phosphate after pre-treatment ([2]; 0 mM NO3− and 0.5 mM PO4−, 1 μM pre-treatment for 12 hrs): overrode phosphate suppression of symbiotic calcium oscillations | LCO induction of calcium oscillations under high nitrate after pre-treatment ([2]; 5 mM NO3− and 0.5 mM PO4−, 1 μM SL): only limited LCO induction of calcium oscillations | symbiotic calcium oscillations under replete phosphate after pre-treatment [3]: overrode phosphate suppression of symbiotic calcium oscillations
